Entries after “also recorded” stand apart in the source; their conditions may differ.
How the values were obtained:
[1] = test system: human renal carcinoma, gastric cancer, breast cancer, and lung cancer xenografts; details: cited from earlier work
[2] = test system: advanced malignant solid tumors; assay: Investigator-assessed antitumor effect (RECIST 1.1: ORR, DCR, PFS)
Method: All safety, tolerance, PK, and antitumor data from each dose group were tabulated and summarized according to the statistical analysis plan. The statistical analysis of the study was descriptive. The continuous variables were described as mean ± standard deviation or median (minimum, maximum). […] The categorical variables were described as n (%). PFS was summarized using the Kaplan–Meier method. […] All data processing, summaries, and analyses were performed using SAS 9.4 (SAS Institute, Cary, NC, USA).

[3] = Phase I dose escalation: safety and tolerability (DLT, MTD, adverse events, NCI-CTCAE 4.03)

CNC(=O)c1cccc(-c2ccc3c(N4C5CCC4COC5)nc(N4CCOC[C@@H]4C)nc3n2)c1 [LXI-15029]
dose dependence of antitumor activity ([1]; dose range of 5–40 mg/kg, in vivo preclinical data): dose-dependent
antitumor activity in xenograft models ([1]; tumors with abnormal regulation in the mTOR signaling pathway, ref [25], [26]): selective antitumor effect; also recorded: selective antitumor activity
disease control rate (DCR) ([2]; 8/20 evaluable, 95% CI 21.7–60.6): 40%
complete or partial response (CR or PR) ([2]; 20 evaluable participants): No participants achieved CR or PR
median progression-free survival ([2]; evaluable patients, overall, from first dose): 29 days
relationship between Ctrough and median PFS or DCR ([2]; exposure-efficacy analysis): no relationship was found
DCR-dose correlation ([2]; in vivo): No DCR-dose correlation was observed
patients with stable disease ([2]; of 20 evaluable): Eight
duration of SD ([2]; one participant with fibrosarcoma, 20 mg BID): 344 days
median PFS ([2]; patients with breast cancer, 95% CI: 0.89–4.63): 0.95 months
median PFS ([2]; patients with sarcoma, 95% CI: 0.92–11.33): 0.97 months
Patients with any TEAE ([3]; 10 mg BID (n = 3)): 3 (100.0) n (%)
Patients with any TEAE, maximum CTCAE Grade 1 ([3]; 10 mg BID (n = 3)): 3 (100.0) n (%)
Patients with any TEAE, maximum CTCAE Grade 2 ([3]; 10 mg BID (n = 3)): 0 n (%)
Patients with any TEAE, maximum CTCAE Grade 3 ([3]; 10 mg BID (n = 3)): 0 n (%)
≥ 10% TRAE: ALT increased ([3]; 10 mg BID (n = 3)): 0 n (%)
≥ 10% TRAE: AST increased ([3]; 10 mg BID (n = 3)): 0 n (%)
≥ 10% TRAE: Decreased appetite ([3]; 10 mg BID (n = 3)): 1 (33.3) n (%)
≥ 10% TRAE: Diarrhea ([3]; 10 mg BID (n = 3)): 0 n (%)
≥ 10% TRAE: ECG QT prolonged ([3]; 10 mg BID (n = 3)): 0 n (%)
≥ 10% TRAE: Fatigue ([3]; 10 mg BID (n = 3)): 0 n (%)
≥ 10% TRAE: GGT increased ([3]; 10 mg BID (n = 3)): 0 n (%)
≥ 10% TRAE: Hypercholesterolemia ([3]; 10 mg BID (n = 3)): 0 n (%)
≥ 10% TRAE: Hypertriglyceridemia ([3]; 10 mg BID (n = 3)): 0 n (%)
≥ 10% TRAE: LDL increased ([3]; 10 mg BID (n = 3)): 0 n (%)
≥ 10% TRAE: Leukocytopenia ([3]; 10 mg BID (n = 3)): 0 n (%)
≥ 10% TRAE: Neutropenia ([3]; 10 mg BID (n = 3)): 0 n (%)
≥ 10% TRAE: Sinus bradycardia ([3]; 10 mg BID (n = 3)): 0 n (%)
Patients with any TEAE ([3]; 20 mg BID (n = 3)): 3 (100.0) n (%)
Patients with any TEAE, maximum CTCAE Grade 1 ([3]; 20 mg BID (n = 3)): 2 (66.7) n (%)
Patients with any TEAE, maximum CTCAE Grade 2 ([3]; 20 mg BID (n = 3)): 1 (33.3) n (%)
Patients with any TEAE, maximum CTCAE Grade 3 ([3]; 20 mg BID (n = 3)): 0 n (%)
≥ 10% TRAE: ALT increased ([3]; 20 mg BID (n = 3)): 1 (33.3) n (%)
≥ 10% TRAE: AST increased ([3]; 20 mg BID (n = 3)): 0 n (%)
≥ 10% TRAE: Decreased appetite ([3]; 20 mg BID (n = 3)): 0 n (%)
≥ 10% TRAE: Diarrhea ([3]; 20 mg BID (n = 3)): 0 n (%)
≥ 10% TRAE: ECG QT prolonged ([3]; 20 mg BID (n = 3)): 0 n (%)
≥ 10% TRAE: Fatigue ([3]; 20 mg BID (n = 3)): 1 (33.3) n (%)
≥ 10% TRAE: GGT increased ([3]; 20 mg BID (n = 3)): 1 (33.3) n (%)
≥ 10% TRAE: Hypercholesterolemia ([3]; 20 mg BID (n = 3)): 0 n (%)
≥ 10% TRAE: Hypertriglyceridemia ([3]; 20 mg BID (n = 3)): 1 (33.3) n (%)
≥ 10% TRAE: LDL increased ([3]; 20 mg BID (n = 3)): 1 (33.3) n (%)
≥ 10% TRAE: Leukocytopenia ([3]; 20 mg BID (n = 3)): 1 (33.3) n (%)
≥ 10% TRAE: Neutropenia ([3]; 20 mg BID (n = 3)): 0 n (%)
≥ 10% TRAE: Sinus bradycardia ([3]; 20 mg BID (n = 3)): 1 (33.3) n (%)
Patients with any TEAE ([3]; 40 mg BID (n = 3)): 2 (66.7) n (%)
Patients with any TEAE, maximum CTCAE Grade 1 ([3]; 40 mg BID (n = 3)): 1 (33.3) n (%)
Patients with any TEAE, maximum CTCAE Grade 2 ([3]; 40 mg BID (n = 3)): 1 (33.3) n (%)
Patients with any TEAE, maximum CTCAE Grade 3 ([3]; 40 mg BID (n = 3)): 0 n (%)
≥ 10% TRAE: ALT increased ([3]; 40 mg BID (n = 3)): 0 n (%)
≥ 10% TRAE: AST increased ([3]; 40 mg BID (n = 3)): 0 n (%)
≥ 10% TRAE: Decreased appetite ([3]; 40 mg BID (n = 3)): 0 n (%)
≥ 10% TRAE: Diarrhea ([3]; 40 mg BID (n = 3)): 0 n (%)
≥ 10% TRAE: ECG QT prolonged ([3]; 40 mg BID (n = 3)): 0 n (%)
≥ 10% TRAE: Fatigue ([3]; 40 mg BID (n = 3)): 0 n (%)
≥ 10% TRAE: GGT increased ([3]; 40 mg BID (n = 3)): 0 n (%)
≥ 10% TRAE: Hypercholesterolemia ([3]; 40 mg BID (n = 3)): 0 n (%)
≥ 10% TRAE: Hypertriglyceridemia ([3]; 40 mg BID (n = 3)): 1 (33.3) n (%)
≥ 10% TRAE: LDL increased ([3]; 40 mg BID (n = 3)): 1 (33.3) n (%)
≥ 10% TRAE: Leukocytopenia ([3]; 40 mg BID (n = 3)): 2 (66.7) n (%)
≥ 10% TRAE: Neutropenia ([3]; 40 mg BID (n = 3)): 0 n (%)
≥ 10% TRAE: Sinus bradycardia ([3]; 40 mg BID (n = 3)): 0 n (%)
Patients with any TEAE ([3]; 60 mg BID (n = 4)): 3 (75.0) n (%)
Patients with any TEAE, maximum CTCAE Grade 1 ([3]; 60 mg BID (n = 4)): 1 (25.0) n (%)
Patients with any TEAE, maximum CTCAE Grade 2 ([3]; 60 mg BID (n = 4)): 2 (50.0) n (%)
Patients with any TEAE, maximum CTCAE Grade 3 ([3]; 60 mg BID (n = 4)): 0 n (%)
≥ 10% TRAE: ALT increased ([3]; 60 mg BID (n = 4)): 1 (25.0) n (%)
≥ 10% TRAE: AST increased ([3]; 60 mg BID (n = 4)): 1 (25.0) n (%)
≥ 10% TRAE: Decreased appetite ([3]; 60 mg BID (n = 4)): 0 n (%)
≥ 10% TRAE: Diarrhea ([3]; 60 mg BID (n = 4)): 2 (50.0) n (%)
≥ 10% TRAE: ECG QT prolonged ([3]; 60 mg BID (n = 4)): 2 (50.0) n (%)
≥ 10% TRAE: Fatigue ([3]; 60 mg BID (n = 4)): 1 (25.0) n (%)
≥ 10% TRAE: GGT increased ([3]; 60 mg BID (n = 4)): 1 (25.0) n (%)
≥ 10% TRAE: Hypercholesterolemia ([3]; 60 mg BID (n = 4)): 3 (75.0) n (%)
≥ 10% TRAE: Hypertriglyceridemia ([3]; 60 mg BID (n = 4)): 2 (50.0) n (%)
≥ 10% TRAE: LDL increased ([3]; 60 mg BID (n = 4)): 1 (25.0) n (%)
≥ 10% TRAE: Leukocytopenia ([3]; 60 mg BID (n = 4)): 1 (25.0) n (%)
≥ 10% TRAE: Neutropenia ([3]; 60 mg BID (n = 4)): 1 (25.0) n (%)
≥ 10% TRAE: Sinus bradycardia ([3]; 60 mg BID (n = 4)): 1 (25.0) n (%)
Patients with any TEAE ([3]; 80 mg BID (n = 4)): 4 (100.0) n (%)
Patients with any TEAE, maximum CTCAE Grade 1 ([3]; 80 mg BID (n = 4)): 3 (75.0) n (%)
Patients with any TEAE, maximum CTCAE Grade 2 ([3]; 80 mg BID (n = 4)): 1 (25.0) n (%)
Patients with any TEAE, maximum CTCAE Grade 3 ([3]; 80 mg BID (n = 4)): 0 n (%)
≥ 10% TRAE: ALT increased ([3]; 80 mg BID (n = 4)): 0 n (%)
≥ 10% TRAE: AST increased ([3]; 80 mg BID (n = 4)): 0 n (%)
